Experimental data published in patent US20170260178A1 (SPERO GYRASE, INC., priority 2012, published 2017).

What was measured:
[1] = tested on: H. influenzae (ATCC 49247); assay: Bacterial assay: MIC against H. influenzae; type: cell-based; conditions: Haemophilus influenzae, ATCC49247; H. influenzae ATCC 49247; read-out: minimal inhibitory concentration (MIC)
S. pyogenes (ATCC 51339) = assay: Bacterial assay: MIC against S. pyogenes; type: cell-based, Streptococcus pyogenes; conditions: Streptococcus pyogenes, ATCC51339, read-out: minimal inhibitory concentration (MIC)
S. aureus (ATCC 29213) = assay: Bacterial assay: MIC against S. aureus; type: cell-based, Staphylococcus aureus; conditions: Staphylococcus aureus, ATCC29213, read-out: minimal inhibitory concentration (MIC)

Work on `CCNC(=O)Nc1nc2cc(-c3cnc(C4(O)COC4)nc3)cc(-c3cc(CN4CCOCC4)ccn3)c2s1` [Compound 154, 1-ethyl-3-[5-[2-(3-hydroxyoxetan-3-yl)pyrimidin-5-yl]-7-[4-(morpholinomethyl)-2-pyridyl]-1,3-benzothiazol-2-yl]urea] yielded an MIC [1] of no more than 2 µg/mL, an MIC (S. pyogenes (ATCC 51339)) of no more than 1 µg/mL and an MIC (S. aureus (ATCC 29213)) of no more than 1 µg/mL.
In the case of `CCNC(=O)Nc1nc2cc(-c3cnc(C(C)(C)O)nc3)cc(-c3ncccn3)c2s1` [Compound 10, 1-ethyl-3-[5-[2-(1-hydroxy-1-methyl-ethyl)pyrimidin-5-yl]-7-pyrimidin-2-yl-1,3-benzothiazol-2-yl]urea], the MIC [1] is reported as no more than 2 µg/mL, the MIC (S. pyogenes (ATCC 51339)) is reported as no more than 1 µg/mL and the MIC (S. aureus (ATCC 29213)) is reported as no more than 1 µg/mL.
With `CCNC(=O)Nc1nc2cc(-c3cnc(C4(O)CCSCC4)nc3)cc(-c3ccccn3)c2s1` [Compound 127, 1-ethyl-3-[5-[2-(4-hydroxytetrahydrothiopyran-4-yl)pyrimidin-5-yl]-7-(2-pyridyl)-1,3-benzothiazol-2-yl]urea] the MIC [1] was no more than 2 µg/mL, the MIC (S. pyogenes (ATCC 51339)) was no more than 1 µg/mL and the MIC (S. aureus (ATCC 29213)) was no more than 1 µg/mL.
With `CCNC(=O)Nc1nc2cc(-c3ccc(C(O)C(F)(F)F)nc3)cc(-c3ccccn3)c2s1` (stereo not drawn) [Compound 96, 1-ethyl-3-[7-(2-pyridyl)-5-[6-(2,2,2-trifluoro-1-hydroxy-ethyl)-3-pyridyl]-1,3-benzothiazol-2-yl]urea] the MIC [1] was no more than 2 µg/mL, the MIC (S. pyogenes (ATCC 51339)) was no more than 1 µg/mL and the MIC (S. aureus (ATCC 29213)) was no more than 1 µg/mL.
`CCNC(=O)Nc1nc2cc(-c3cnc(C(C)(C)O)nc3)cc(-c3cc(OCCCN4CCOCC4)ccn3)c2s1` [Compound 38, 1-ethyl-3-[5-[2-(1-hydroxy-1-methyl-ethyl)pyrimidin-5-yl]-7-[4-(3-morpholinopropoxy)-2-pyridyl]-1,3-benzothiazol-2-yl]urea] was tested, and the MIC [1] was no more than 2 µg/mL, the MIC (S. pyogenes (ATCC 51339)) was no more than 1 µg/mL and the MIC (S. aureus (ATCC 29213)) was no more than 1 µg/mL.
In the case of `CCNC(=O)Nc1nc2cc(-c3cnc([C@H](C)O)nc3)cc(-c3ccccn3)c2s1` [Compound 23, 1-ethyl-3-[5-[2-[(1S)-1-hydroxyethyl]pyrimidin-5-yl]-7-(2-pyridyl)-1,3-benzothiazol-2-yl]urea], the MIC [1] is reported as no more than 2 µg/mL, the MIC (S. pyogenes (ATCC 51339)) is reported as no more than 1 µg/mL and the MIC (S. aureus (ATCC 29213)) is reported as no more than 1 µg/mL.
With `CCNC(=O)Nc1nc2cc(-c3ccc(C(C)O)nc3)cc(-c3ccccn3)c2s1` (stereo not drawn) [Compound 95, 1-ethyl-3-[5-[6-(1-hydroxyethyl)-3-pyridyl]-7-(2-pyridyl)-1,3-benzothiazol-2-yl]urea] the MIC [1] was no more than 2 µg/mL, the MIC (S. pyogenes (ATCC 51339)) was no more than 1 µg/mL and the MIC (S. aureus (ATCC 29213)) was no more than 1 µg/mL.
`CCNC(=O)Nc1nc2cc(-c3cnc(C(C)O)nc3)cc(-c3cc(CN4CCOCC4C)ccn3)c2s1` (stereo not drawn) [Compound 68, 1-ethyl-3-[5-[2-(1-hydroxyethyl)pyrimidin-5-yl]-7-[4-[(3-methylmorpholin-4-yl)methyl]-2-pyridyl]-1,3-benzothiazol-2-yl]urea] gave an MIC [1] of no more than 2 µg/mL, an MIC (S. pyogenes (ATCC 51339)) of no more than 1 µg/mL and an MIC (S. aureus (ATCC 29213)) of no more than 1 µg/mL.
Molecule `CCNC(=O)Nc1nc2cc(-c3cnc(C(C)(C)O)nc3)cc(-c3cc(C)ncn3)c2s1` [Compound 43, 1-ethyl-3-[5-[2-(1-hydroxy-1-methyl-ethyl)pyrimidin-5-yl]-7-(6-methylpyrimidin-4-yl)-1,3-benzothiazol-2-yl]urea] has an MIC [1] of no more than 2 µg/mL, an MIC (S. pyogenes (ATCC 51339)) of no more than 1 µg/mL and an MIC (S. aureus (ATCC 29213)) of no more than 1 µg/mL.
For `CCNC(=O)Nc1nc2cc(-c3cnc(C(C)(C)O)nc3)cc(-c3ccc(OCCN4CCOCC4)cn3)c2s1` [Compound 56, 1-ethyl-3-[5-[2-(1-hydroxy-1-methyl-ethyl)pyrimidin-5-yl]-7-[5-(2-morpholinoethoxy)-2-pyridyl]-1,3-benzothiazol-2-yl]urea], the MIC [1] was no more than 2 µg/mL, the MIC (S. pyogenes (ATCC 51339)) was no more than 1 µg/mL and the MIC (S. aureus (ATCC 29213)) was no more than 1 µg/mL.
In the case of `CCNC(=O)Nc1nc2cc(-c3cnc(C(C)O)nc3)cc(-c3cc(CN4CC(OC)C4)ccn3)c2s1` (stereo not drawn) [Compound 76, 1-ethyl-3-[5-[2-(1-hydroxyethyl)pyrimidin-5-yl]-7-[4-[(3-methoxyazetidin-1-yl)methyl]-2-pyridyl]-1,3-benzothiazol-2-yl]urea], the MIC [1] is reported as no more than 2 µg/mL, the MIC (S. pyogenes (ATCC 51339)) is reported as no more than 1 µg/mL and the MIC (S. aureus (ATCC 29213)) is reported as no more than 1 µg/mL.
